Reference: ChEMBL document CHEMBL3046863, “Chemical composition and antifungal activity of essential oil of Chrysactinia mexicana gray” (J Agric Food Chem, 2005)
The source made the active and inactive calls. The rule behind the calls is not given here.

How the values were obtained:
Format in all cases: functional, organism-based
Aspergillus flavus [1] = assay: Antifungal activity against Aspergillus flavus assessed as inhibition of mycelial growth in dextrose sabouraud broth and Czapek agar at 0.6 mg/ml at 28 +/- 1 degC for 72 hr by dilution technique
Aspergillus flavus [2] = assay: Antifungal activity against Aspergillus flavus assessed as inhibition of mycelial growth in dextrose sabouraud broth and Czapek agar at 0.5 mg/ml at 28 +/- 1 degC for 72 hr by dilution technique
Aspergillus flavus [3] = assay: Antifungal activity against Aspergillus flavus assessed as inhibition of mycelial growth in dextrose sabouraud broth and Czapek agar at 0.4 mg/ml at 28 +/- 1 degC for 72 hr by dilution technique
Aspergillus flavus [4] = assay: Antifungal activity against Aspergillus flavus assessed as inhibition of mycelial growth in dextrose sabouraud broth and Czapek agar at 0.3 mg/ml at 28 +/- 1 degC for 72 hr by dilution technique
Aspergillus flavus [5] = assay: Antifungal activity against Aspergillus flavus assessed as inhibition of mycelial growth in dextrose sabouraud broth and Czapek agar at 0.2 mg/ml at 28 +/- 1 degC for 72 hr by dilution technique
Aspergillus flavus [6] = assay: Antifungal activity against Aspergillus flavus assessed as inhibition of mycelial growth in dextrose sabouraud broth and Czapek agar at 0.1 mg/ml at 28 +/- 1 degC for 72 hr by dilution technique
Sclerotinia sclerotiorum = assay: Antifungal activity against Sclerotinia sclerotiorum assessed as inhibition of mycelial growth in dextrose sabouraud broth and Czapek agar at 28 +/- 1 degC for 72 hr by dilution technique

Structure (SMILES) | Activity (Aspergillus flavus [1]) | Activity (Aspergillus flavus [2]) | Activity (Aspergillus flavus [3]) | Activity (Aspergillus flavus [4]) | Activity (Aspergillus flavus [5]) | Activity (Aspergillus flavus [6]) | EC50 (Sclerotinia sclerotiorum) [uL/L]
CC1=CC(=O)C(C(C)C)CC1 (centres undefined) | Active | inactive | inactive | inactive | inactive | inactive | 
CC12CCC(CC1)C(C)(C)O2 | inactive | inactive | inactive | inactive | inactive | inactive | 
C=CC(C)(CCC=C(C)C)OC(C)=O (centres undefined) [LINALYL ACETATE] | inactive | inactive | inactive | inactive | inactive | inactive | 569.62
